In patent US10807944B2, “HDAC inhibitor compounds and methods of treatment” (priority 2014, dated 2020):

How the values were obtained:
in vivo = conditions: mouse, plasma, po, 80 mg/kg
HDAC1 = HDAC1 (Homo sapiens (Human), UniProt Q13547); test: In vitro HDAC1 inhibition of HTS hits (HDAC I/II-Glo reagents); type: biochemical; conditions: HTS follow-up
Sequence of HDAC1 (Q13547 whole entry): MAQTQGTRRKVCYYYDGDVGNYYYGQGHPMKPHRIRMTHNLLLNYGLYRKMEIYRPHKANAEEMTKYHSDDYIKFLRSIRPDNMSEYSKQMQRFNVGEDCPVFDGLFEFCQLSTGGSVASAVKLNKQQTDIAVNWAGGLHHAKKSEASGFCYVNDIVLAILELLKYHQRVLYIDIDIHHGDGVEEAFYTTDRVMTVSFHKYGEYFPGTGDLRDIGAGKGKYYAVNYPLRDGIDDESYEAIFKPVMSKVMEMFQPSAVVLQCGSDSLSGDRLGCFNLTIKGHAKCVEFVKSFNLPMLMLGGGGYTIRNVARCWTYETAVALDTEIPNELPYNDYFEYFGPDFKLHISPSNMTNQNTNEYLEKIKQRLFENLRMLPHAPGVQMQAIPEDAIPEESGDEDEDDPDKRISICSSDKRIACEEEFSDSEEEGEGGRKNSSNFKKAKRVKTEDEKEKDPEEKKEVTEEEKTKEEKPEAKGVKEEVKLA

SMILES: CCCCNNC(=O)c1ccc(Br)cc1 [UF010, 4-bromo-N′-butylbenzohydrazide]
- AUC (in vivo): 6.07 µM·h
- Cmax (in vivo): 5.95 µM
- Tmax (in vivo): 15 min
- half-life (in vivo): 74.4 min
- potency of HDAC1 inhibition in vitro (HDAC1): < 10 µM
